Non-standard residues stand in square brackets, D forms with d. Residues, ends and D or L forms follow the SMILES beside them. *: point of attachment. Dolaproine = CO[C@@H]([C@@H]1CCCN1)[C@@H](C)C(=O)O; Dil = CC[C@H](C)[C@H](NC)[C@@H](CC(=O)O)OC; NMe2Val = CC(C)[C@@H](C(=O)*)N(C)C; NH(3-hydroxypropyl) = OCCCN*
Experiment: Tolerability of Auristatin F-hydroxypropylamide (MTD study)
Format: in vivo, mice
Conditions: n=6
From the text: The vehicle control group received physiological saline.

CC[C@H](C)[C@@H]([C@@H](CC(=O)N1CCC[C@H]1[C@H](OC)[C@@H](C)C(=O)N[C@@H](Cc1ccccc1)C(=O)NCCCO)OC)N(C)C(=O)[C@@H](NC(=O)[C@H](C(C)C)N(C)C)C(C)C [AF-HPA, auristatin F hydroxypropyl amide] (NMe2Val-V[Dil][Dolaproine]F-{NH(3-hydroxypropyl)})
Mortality or morbidity (3.2 mg/kg single IV dose): 1 animal died on day 7, 3 | Mortality or morbidity (4.7 mg/kg single IV dose): 1 animal died on Day 3, 1

— US9849191B2, “Protein-polymer-drug conjugates” (MERSANA THERAPEUTICS, INC., priority 2013, dated 2017)
